We go through 1 compound from patent publication US20070148094A1, “Polymeric imaging agents and medical imaging methods” (priority 2005, published 2007).

SMILES strings stand for the structures.

In the assay the test system is rat mammary tumor line (MAT-B-III). The assay can be described thus: Optical (NIR fluorescence) imaging of tumor to background ratio in tumor rat model. It is filed as in vivo. An excerpt: For optical imaging the signal to ratio background ratio is defined as the mean fluorescence intensity (target tissue)/mean fluorescence intensity (background tissue). For optical imaging methods, target to background ratio may be determined using computer-controlled (LabVIEW) camera acquisition via custom LabVIEW software. […] A region of interest (ROI) maybe defined in both the tumor area and the background tissue area. Fluorescence emission from the ROI may be received at a near-infrared sensitive 12-bit CCD camera, in which the intensities range from 0-4095.
Optical Imaging Using Tumor Rat Model. Step 1. Introduction of Tumor Cells into Animal. Intra-mammary gland tumor injection is a survival surgery. All procedures are performed with the animal lying on a circulating water pad. With the anesthetized rat lying on its back, the sterile prepped ventral abdominal skin is picked up, just above the left groin (inguinal) area and a small incision is made with scissors being careful to avoid the underlying peritonium. The fourth mammary gland is easily visible, lying on the dorsal surface of the skin directly on top of a junction point for the mammary artery and vein. Using a 1 cc syringe, 10^6 cells (0.1 ml) were injected directly into the gland. Only one mammary gland per rat was inoculated with tumor cells. The skin wound was closed with surgical staples. Surgical staples were removed 3 days after insertion.
Animals are treated with test agents and imaged 7 days after tumor injections. Test agents are administered via a tail vein injection (100-500 μl). For MR studies, animals received a pre-injection scan, followed by post-injection scans. Images were obtained post injection at approximately 4-minute intervals following injection for up to 30-40 minutes. In some experiments images were again taken at 24 hours after injection. For optical studies, animals were imaged at 0.5, 6, 12, and 24 hours.
Step 2. Agent Administration. After approximately 8 days following tumor cell implantation (the tumor size reached about 5-10 mm diameter) one of several imaging agents listed in Table 2 was administered to the animal at the corresponding dosage indicated in Table 2.
Step 3. Surgical Resection. Surgical tumor resection is a non-survival surgery. Tumors were resecteded when they reached a diameter in the range of 5-10 mm in diameter. With the anesthetized rat lying on its back, the ventral abdominal skin is picked up, just above the left groin (inguinal) area and a small incision is made (at or near the site of tumor inoculation) with scissors being careful to avoid the underlying peritonium. The tumor, growing in the mammary gland, stays contained in this tissue and is easily removed. The tumor was held with a pair of forceps and using a scalpel is removed from the surrounding connective tissue. After the tumor was removed, a midline incision, through the peritoneum was made, other organs were observed and imaged, and sampled for histological and biodistribution studies.
Step 4. Data Capture. Images were captured for later evaluation of the relative intensity of fluorescence in the kidney, liver, bladder, muscle etc. Samples of blood and urine were acquired and stored, the animal was sacrificed, and the clearance organs were removed from animal and frozen in a slurry of dry ice and 2-methylbutane. The tissues were then placed in an embedding medium (OCT, […]) and frozen at −80° C. Blood and urine samples were analyzed for concentration of agent at this time point, and for evidence of metabolism of the administered agent.
Statistical Analysis of Optical Imagine Results. To reduce the large number of variables in this problem and one polymer length (˜400 residues) was chosen at a high percentage conjugation (˜96%) for the MR imaging moiety (Gd-DTPA) with one dye per molecule. In one set of experiments, a tetra-sulfonated dye (Cy5.5-NHS-Ester) was then compared with a bis-sulfonated dye (Cy5-NHS-Ester). […]

On to `CC[N+]1=C(C=CC=CC=C2N(CCCCCC(=O)O)c3ccc(S(=O)(=O)[O-])cc3C2(C)C)C(C)(C)c2cc(S(=O)(=O)[O-])ccc21.[Na+]` [Cy5 free dye, 2-[5-[1-(5-carboxypentyl)-1,3-dihydro-3,3-dimethyl-5-sulfo-2H-indol-2-ylidene]-penta-1,3-dienyl]-3,3-dimethyl-5-sulfo-1-ethyl-3H-indolium, inner salt, sodium salt], for which the “Average of Tumor/Bkgnd” value is given as 1.17 (dose printed as 'blank', 6 hours post injection); 1.18 (dose printed as 'blank', 12 hours post injection); 1.17 (dose printed as 'blank', 24 hours post injection); 1.17 (dose printed as 'blank', Total over time points); 1.17 (vector subtotal over all doses, 6 hours post injection); 1.18 (vector subtotal over all doses, 12 hours post injection). Besides, the “Average of Tumor/Bkgnd” value by setting is: (vector subtotal over all doses, 24 hours post injection) 1.17; (vector subtotal over all doses, Total over time points) 1.17.
